Measurements reported in patent US12376538B2, “Rice cultivar designated ‘CLL17’” (Board of Supervisors of Louisiana State University and …, priority 2020, dated 2025).

The compounds below were run on ‘CLL17’ rice plant (assay: Herbicide tolerance and susceptibility of 'CLL17' rice plants). Details: at levels of the herbicide that would normally inhibit the growth of a rice plant.
Assay type: in vivo
Source text: The variety is resistant to imidazolinone herbicides. The herbicide resistance (or herbicide tolerance) profile is essentially the same as that of ‘CL161’ through common ancestry. The herbicide tolerance allows ‘CLL17,’ its hybrids, and derived varieties to be used with certain imidazolinone or sulfonylurea herbicides, including among others the imidazolinone herbicides imazethapyr and imazamox, for the selective control of weeds including red rice. See generally U.S. Pat. No. 6,943,280.
Among others, the herbicide tolerance and susceptibility characteristics of ‘CLL17’ include or are expected to include the following.

Row | Compound | herbicide tolerance / susceptibility of ‘CLL17’ (resistant or sensitive)
1 | CCOC(=O)c1ccccc1S(=O)(=O)NC(=O)Nc1nc(Cl)cc(OC)n1 [chlorimuron ethyl] | sensitive
2 | COCc1cnc(C2=NC(C)(C(C)C)C(=O)N2)c(C(=O)O)c1 (stereo not drawn) [imazamox] | resistant
3 | Cc1cnc(C2=NC(=O)C(C)(C(C)C)N2)c(C(=O)O)c1 (stereo not drawn) [imazapic] | resistant
4 | CC(C)C1(C)N=C(c2ncccc2C(=O)O)NC1=O (stereo not drawn) [imazapyr] | resistant
5 | CC(C)C1(C)N=C(c2nc3ccccc3cc2C(=O)O)NC1=O (stereo not drawn) [imazaquin] | resistant
6 | CCc1cnc(C2=NC(C)(C(C)C)C(=O)N2)c(C(=O)O)c1 (stereo not drawn) [imazethapyr] | resistant
7 | COC(=O)c1ccccc1S(=O)(=O)NC(=O)Nc1nc(C)nc(OC)n1 [metsulfuron methyl] | resistant
8 | COc1cc(OC)nc(NC(=O)NS(=O)(=O)c2ncccc2C(=O)N(C)C)n1 [nicosulfuron] | resistant
9 | CCS(=O)(=O)c1cccnc1S(=O)(=O)NC(=O)Nc1nc(OC)cc(OC)n1 [rimsulfuron] | sensitive
10 | COC(=O)c1ccccc1S(=O)(=O)NC(=O)Nc1nc(C)cc(C)n1 [sulfometuron methyl] | sensitive
11 | COC(=O)c1sccc1S(=O)(=O)NC(=O)Nc1nc(C)nc(OC)n1 [thifensulfuron methyl] | resistant
12 | COC(=O)c1ccccc1S(=O)(=O)NC(=O)N(C)c1nc(C)nc(OC)n1 [tribenuron methyl] | resistant
